What is called IC50 is the concentration that gives 50% inhibition.

This test deals with human c-MER catalytic domain (Homo sapiens (Human), UniProt Q12866). Nature of the test: TR-FRET Kinase Activity Biochemical Assay (LanthaScreen). Conditions: 10 uM ATP, 1 hour, kinase not given. The method in brief:
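Recombinant human c-MER catalytic domain phosphorylated fluorescein-labeled poly-GT substrate. The reaction was stopped with 10 mM EDTA, then 2 nM Tb-labeled anti-phosphotyrosine antibody was added for 30 min. Kinase activity was taken from the 495/520 nm TR-FRET emission ratio after 340 nm excitation.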
For orientation: In TR-FRET formats the signal depends on donor and acceptor labels being close together.

Sequence of human c-MER catalytic domain (Q12866 587-858): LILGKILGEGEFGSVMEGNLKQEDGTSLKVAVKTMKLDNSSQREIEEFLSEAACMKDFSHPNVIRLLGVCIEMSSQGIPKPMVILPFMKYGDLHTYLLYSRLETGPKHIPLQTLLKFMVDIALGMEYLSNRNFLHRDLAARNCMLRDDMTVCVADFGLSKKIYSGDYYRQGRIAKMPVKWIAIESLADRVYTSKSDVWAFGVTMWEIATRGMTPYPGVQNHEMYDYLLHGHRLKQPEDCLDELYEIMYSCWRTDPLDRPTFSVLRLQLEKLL

`Cn1cc(-c2cnc(N)c(C(=O)N[C@@H]3CCN(C(=O)c4ccc(-c5ccncc5)cc4)C3)c2)cn1` [Example 489, (R)-2-amino-5-(1-methyl-1H-pyrazol-4-yl)-N-(1-(4-(pyridin-4-yl)benzoyl)pyrrolidin-3-yl)nicotinamide]: the IC50 was 100 to 1000 nM. `Cn1cc(-c2cnc(N)c(C(=O)N[C@@H]3CCN(C(=O)c4ccc(C5=CCCCC5)cc4)C3)c2)cn1` [Example 494, (R)-2-amino-5-(1-methyl-1H-pyrazol-4-yl)-N-(1-(2′,3′,4′,5′-tetrahydro-[1,1′-biphenyl]-4-carbonyl)pyrrolidin-3-yl)nicotinamide] returned a half-inhibitory concentration (IC50) of 10 to 100 nM. With `Cn1cc(-c2cnc(N)c(C(=O)N[C@@H]3CCN(C(=O)c4cccc(-c5ccc6c(c5)NC(=O)C6=O)c4)C3)c2)cn1` [Example 495, (R)-2-amino-N-(1-(3-(2,3-dioxoindolin-6-yl)benzoyl)pyrrolidin-3-yl)-5-(1-methyl-1H-pyrazol-4-yl)nicotinamide] the figure was greater than 1000 nM; with `Cn1cc(-c2cnc(N)c(C(=O)N[C@@H]3CCN(C(=O)C4Cc5ccccc5C4)C3)c2)cn1` [Example 496, (R)-2-amino-N-(1-(2,3-dihydro-1H-indene-2-carbonyl)pyrrolidin-3-yl)-5-(1-methyl-1H-pyrazol-4-yl)nicotinamide], greater than 1000 nM. With `Cn1cc(-c2cnc(N)c(C(=O)N[C@@H]3CCN(C(=O)c4nc5cc(Cl)ccc5o4)C3)c2)cn1` [Example 498, (R)-2-amino-N-(1-(5-chlorobenzo[d]oxazole-2-carbonyl)pyrrolidin-3-yl)-5-(1-methyl-1H-pyrazol-4-yl)nicotinamide] the figure was greater than 1000 nM; with `Cn1cc(-c2cnc(N)c(C(=O)N[C@@H]3CCN(C(=O)c4nn(C)c5ccccc45)C3)c2)cn1` [Example 499, (R)-2-amino-N-(1-(1-methyl-1H-indazole-3-carbonyl)pyrrolidin-3-yl)-5-(1-methyl-1H-pyrazol-4-yl)nicotinamide], 100 to 1000 nM. `Cc1onc(-c2ccccc2)c1C(=O)N1CC[C@@H](NC(=O)c2cc(-c3cnn(C)c3)cnc2N)C1` [Example 500, (R)-2-amino-5-(1-methyl-1H-pyrazol-4-yl)-N-(1-(5-methyl-3-phenylisoxazole-4-carbonyl)pyrrolidin-3-yl)nicotinamide] gave an IC50 greater than 1000 nM. To `Cn1cc(-c2cnc(N)c(C(=O)N[C@@H]3CCN(C(=O)c4cccc5c4oc4ccccc45)C3)c2)cn1` [Example 501, (R)-2-amino-N-(1-(dibenzo[b,d]furan-4-carbonyl)pyrrolidin-3-yl)-5-(1-methyl-1H-pyrazol-4-yl)nicotinamide] belongs greater than 1000 nM; to `Cn1cc(-c2cnc(N)c(C(=O)N[C@@H]3CCN(C(=O)c4ccc5[nH]ccc5c4)C3)c2)cn1` [Example 502, (R)—N-(1-(1H-indole-5-carbonyl)pyrrolidin-3-yl)-2-amino-5-(1-methyl-1H-pyrazol-4-yl)nicotinamide], greater than 1000 nM. To `Cn1cc(-c2cnc(N)c(C(=O)N[C@@H]3CCN(C(=O)c4ccc5[nH]c6c(c5c4)CCC6)C3)c2)cn1` [Example 503, (R)-2-amino-5-(1-methyl-1H-pyrazol-4-yl)-N-(1-(1,2,3,4-tetrahydrocyclopenta[b]indole-7-carbonyl)pyrrolidin-3-yl)nicotinamide] belongs greater than 1000 nM. To `Cn1cc(-c2cnc(N)c(C(=O)N[C@@H]3CCN(C(=O)c4ccc(-c5cnn(C6CCN(C(=O)OC(C)(C)C)CC6)c5)cc4)C3)c2)cn1` [Example 511, tert-butyl (R)-4-(4-(4-(3-(2-amino-5-(1-methyl-1H-pyrazol-4-yl)nicotinamido)pyrrolidine-1-carbonyl)phenyl)-1H-pyrazol-1-yl)piperidine-1-carboxylate] belongs 100 to 1000 nM; to `CC(=O)n1ccc2cc(C(=O)N3CC[C@@H](NC(=O)c4cc(-c5cnn(C)c5)cnc4N)C3)ccc21` [Example 513, (R)—N-(1-(1-acetyl-1H-indole-5-carbonyl)pyrrolidin-3-yl)-2-amino-5-(1-methyl-1H-pyrazol-4-yl)nicotinamide], 100 to 1000 nM; to `CC(=O)n1ccc2c(C(=O)N3CC[C@@H](NC(=O)c4cc(-c5cnn(C)c5)cnc4N)C3)cccc21` [Example 514, (R)—N-(1-(1-acetyl-1H-indole-4-carbonyl)pyrrolidin-3-yl)-2-amino-5-(1-methyl-1H-pyrazol-4-yl)nicotinamide], greater than 1000 nM. On to `Cn1cc(-c2cnc(N)c(C(=O)N[C@@H]3CCN(C(=O)c4cn(-c5ccccc5)nc4C(F)(F)F)C3)c2)cn1` [Example 516, (R)-2-amino-5-(1-methyl-1H-pyrazol-4-yl)-N-(1-(1-phenyl-3-(trifluoromethyl)-1H-pyrazole-4-carbonyl)pyrrolidin-3-yl)nicotinamide], for which the IC50 was greater than 1000 nM. To `Cc1n[nH]c(C)c1-c1ccc(C(=O)N2CC[C@@H](NC(=O)c3cc(-c4cnn(C)c4)cnc3N)C2)cc1` [Example 518, (R)-2-amino-N-(1-(4-(3,5-dimethyl-1H-pyrazol-4-yl)benzoyl)pyrrolidin-3-yl)-5-(1-methyl-1H-pyrazol-4-yl)nicotinamide] belongs 100 to 1000 nM. `Cc1nn(-c2ccc(N)cc2)c(C)c1-c1ccc(C(=O)N2CC[C@@H](NC(=O)c3cc(-c4cnn(C)c4)cnc3N)C2)cc1` [Example 520, (R)-2-amino-N-(1-(4-(1-(4-aminophenyl)-3,5-dimethyl-1H-pyrazol-4-yl)benzoyl)pyrrolidin-3-yl)-5-(1-methyl-1H-pyrazol-4-yl)nicotinamide]: the IC50 fell in the range of 100 to 1000 nM. With `Cc1nn(C)c(C(F)(F)F)c1-c1ccc(C(=O)N2CC[C@@H](NC(=O)c3cc(-c4cnn(C)c4)cnc3N)C2)cc1` [Example 521, (R)-2-amino-N-(1-(4-(1,3-dimethyl-5-(trifluoromethyl)-1H-pyrazol-4-yl)benzoyl)pyrrolidin-3-yl)-5-(1-methyl-1H-pyrazol-4-yl)nicotinamide] the figure was 100 to 1000 nM; with `COc1ccsc1-c1ccc(C(=O)N2CC[C@@H](NC(=O)c3cc(-c4cnn(C)c4)cnc3N)C2)cc1` [Example 524, (R)-2-amino-N-(1-(4-(3-methoxythiophen-2-yl)benzoyl)pyrrolidin-3-yl)-5-(1-methyl-1H-pyrazol-4-yl)nicotinamide], 10 to 100 nM; with `CN(C)c1ccc(Oc2ccc(-c3ccc(C(=O)N4CC[C@@H](NC(=O)c5cc(-c6cnn(C)c6)cnc5N)C4)cc3)cc2)cc1` [Example 529, (R)-2-amino-N-(1-(4′-(4-(dimethylamino)phenoxy)-[1,1′-biphenyl]-4-carbonyl)pyrrolidin-3-yl)-5-(1-methyl-1H-pyrazol-4-yl)nicotinamide], 10 to 100 nM. With `Cn1cc(-c2cnc(N)c(C(=O)N[C@@H]3CCN(C(=O)c4ccc(-c5ccc(Oc6cccc(N)c6)cc5)cc4)C3)c2)cn1` [Example 530, (R)-2-amino-N-(1-(4′-(3-aminophenoxy)-[1,1′-biphenyl]-4-carbonyl)pyrrolidin-3-yl)-5-(1-methyl-1H-pyrazol-4-yl)nicotinamide] the figure was 10 to 100 nM.

Turning to `Cn1cc(-c2cnc(N)c(C(=O)N[C@@H]3CCN(C(=O)c4ccc(-c5ccc(OC6CCNCC6)cc5)cc4)C3)c2)cn1` [Example 531, (R)-2-amino-5-(1-methyl-1H-pyrazol-4-yl)-N-(1-(4′-(piperidin-4-yloxy)-[1,1′-biphenyl]-4-carbonyl)pyrrolidin-3-yl)nicotinamide], the IC50 lay within 10 to 100 nM. To `Cn1cc(-c2cnc(N)c(C(=O)N[C@@H]3CCN(C(=O)c4ccc(-c5ccc(OC6CCNC6)cc5)cc4)C3)c2)cn1` (stereo partly drawn) [Example 532, 2-amino-5-(1-methyl-1H-pyrazol-4-yl)-N-((3R)-1-(4′-(pyrrolidin-3-yloxy)-[1,1′-biphenyl]-4-carbonyl)pyrrolidin-3-yl)nicotinamide] belongs 100 to 1000 nM; to `Cn1cc(-c2cnc(N)c(C(=O)N[C@@H]3CCN(C(=O)c4ccc(-c5ccc(Oc6ccc(N)cc6)cc5F)cc4)C3)c2)cn1` [Example 533, (R)-2-amino-N-(1-(4′-(4-aminophenoxy)-2′-fluoro-[1,1′-biphenyl]-4-carbonyl)pyrrolidin-3-yl)-5-(1-methyl-1H-pyrazol-4-yl)nicotinamide], 10 to 100 nM; to `Cc1ccc(-c2ccc(C(=O)N3CC[C@@H](NC(=O)c4cc(-c5cnn(C)c5)cnc4N)C3)cc2C)s1` [Example 536, (R)-2-amino-5-(1-methyl-1H-pyrazol-4-yl)-N-(1-(3-methyl-4-(5-methylthiophen-2-yl)benzoyl)pyrrolidin-3-yl)nicotinamide], 10 to 100 nM.

The compound `Cn1cc(-c2cnc(N)c(C(=O)N[C@@H]3CCN(C(=O)c4ccc(-c5ccc(C#N)s5)cc4)C3)c2)cn1` [Example 537, (R)-2-amino-N-(1-(4-(5-cyanothiophen-2-yl)benzoyl)pyrrolidin-3-yl)-5-(1-methyl-1H-pyrazol-4-yl)nicotinamide] registered an IC50 of 10 to 100 nM.

The compound `Cc1noc(C)c1-c1ccc(C(=O)N2CC[C@@H](NC(=O)c3cc(-c4cnn(C)c4)cnc3N)C2)cc1` [Example 539, (R)-2-amino-N-(1-(4-(3,5-dimethylisoxazol-4-yl)benzoyl)pyrrolidin-3-yl)-5-(1-methyl-1H-pyrazol-4-yl)nicotinamide] registered a half-maximal inhibitory concentration (IC50) of 100 to 1000 nM. `Cn1cc(-c2cnc(N)c(C(=O)N[C@@H]3CCN(C(=O)c4ccc(-c5ccc(O[C@H]6CCNC6)cc5)cc4)C3)c2)cn1` [Example 541, 2-amino-5-(1-methyl-1H-pyrazol-4-yl)-N—((R)-1-(4′-(((S)-pyrrolidin-3-yl)oxy)-[1,1′-biphenyl]-4-carbonyl)pyrrolidin-3-yl)nicotinamide] registered an IC50 of 10 to 100 nM. With `CC(O)c1ccc(-c2ccc(C(=O)N3CC[C@@H](NC(=O)c4cc(-c5cnn(C)c5)cnc4N)C3)cc2)s1` (stereo partly drawn) [Example 542, 2-amino-N-((3R)-1-(4-(5-(1-hydroxyethyl)thiophen-2-yl)benzoyl)pyrrolidin-3-yl)-5-(1-methyl-1H-pyrazol-4-yl)nicotinamide] the figure was 100 to 1000 nM.

The values above are taken from US12378224B2 (Dong-A Socio Holdings Co., Ltd., priority 2016, dated 2025).
